Tests used:
[1] = Sulfate binding constants, average of the UV-vis and NMR titrations, and E,E − Z,Z comparison
Protocol: For absorption titration experiments, a freshly prepared stock solution of 1.5 mM E,E-2PyDIG·HOTf in DMSO-d6 was added to a 1 mm quartz cuvette, and a tetramethylammonium sulfate solution (3.6 mM in DMSO-d6) was added, and the solution was mixed. Absorption spectra were collected after each addition using a UV-Visible spectrophotometer at ca. 24° C. For the Z,Z photoisomer, a freshly prepared 1.5 mM 2PyDIG·HOTf sample was irradiated for 1 hour before titration experiments were prepared and carried out in the same manner as for the E,E isomer.
The binding constants from the three UV-Vis titrations were calculated using commercial software based on the changes in the 2PyDIG^+ absorption maximum value at 315 nm and 320 nm for the E,E and Z,Z photoisomers, respectively. Fitting was performed by assigning the 1:0 and 1:2 PyDIG:sulfate adducts as spectra from before addition of sulfate and after 3 molar equivalents of sulfate, respectively.
For ^1H NMR titrations, a freshly prepared stock solution of 1.5 mM 2PyDIG·HOTf in DMSO-d6 was added to twelve NMR tubes, and a tetramethylammonium sulfate solution (10 mM in DMSO-d6) was added in varying stoichiometric amounts. Clean DMSO-d6 was then added to achieve a final volume of 500 μL. Titrations were performed with both a micropipette and a micrometer syringe. For the Z,Z photoisomer, a freshly prepared 1.5 mM 2PyDIG·HOTf sample was irradiated for 1 hour before the six titration experiments were prepared and carried out in the same manner as for the E,E isomer. To ensure that the PyDIG concentration was not changing as a result of precipitation, dimethylsulfone was added as an internal standard to the 1:2 PyDIG:SO4 solution. It was determined that the concentration of PyDIG remained constant throughout the experiment.
The binding constants from the four ^1H NMR titrations were calculated using commercial software based on the changes in the guanidinium —N—H chemical shifts of the 2PyDIG protons. During fitting, only the monoprotonated 2PyDIG cation was considered, as the Bjerrum pair of 2PyDIG cation and triflate in DMSO was estimated to have a Kassociation value of 156 M−^1. Fitting was performed by locking the 1:0 and 1:2 PyDIG:sulfate adducts at known chemical shift values to reduce the number of adjustable parameters to refine. The corresponding speciation and residual plots for each trial made. Attempts to increase the experimental concentration of 2PyDIG·HOTf higher than 1 mM produced solids, which prevented NMR titrations at higher concentrations.

[2] = Photoirradiation, thermal relaxation and cycling monitored by 1H NMR in DMSO-d6; assay type: physicochemical; conditions: for time to reach thermal equilibrium: 10 mM, photoirradiated
Protocol: In a typical photoirradiation NMR experiment, 3 mL of a freshly made deuterated DMSO solution was placed in a quartz cuvette (1 cm×1 cm×4.5 cm), stirred, and irradiated with UV-visible light using an unfiltered super high-pressure mercury lamp with emissions in the long-wave UV region and in the visible region at the yellow, green, blue, and violet wavelengths (254-800 nm). From the irradiated solution, 500 μL aliquots were removed with a micropipette and transferred to NMR tubes. For studies including excess triflate, a stock solution (200 mM) of tetramethylammonium triflate in DMSO-d6 was added before irradiation to obtain the desired concentration. Experiments were carried out in the same fashion as above. All measurements were obtained on the irradiated solutions within 1 hour of irradiation. ^1H spectra were recorded on a Bruker AvanceIII-400 MHz NMR spectrometer equipped with a 5 mm PABBO probe. The residual solvent signal ((CD3)2SO δH=2.50 ppm) was considered as an internal reference to calibrate spectra and the temperature was held at 24° C. The chemical shifts used to monitor photoisomerization were the set of doublets at 8.67 and 8.80 ppm and triplets at 7.54 and 7.68 ppm for the E,E and Z,Z isomers, respectively. […] The sample underwent hydrolysis back to the aldehyde only under forcing conditions of heating the sample at 50° C. for 2 weeks in water, where the aldehyde proton at 9.86 ppm started to resolve.
Cycling studies were performed by irradiating a freshly prepared, 9.94 mM 2PyDIG·HOTf DMSO-d6 solution in an NMR tube at 24° C. After 6 hour, a ^1H NMR spectrum was collected to determine the photoisomerization value, and the sealed NMR tube was placed in a 50° C. oven. The sample was heated statically for 24 hour, at which point the solution was left to cool at room temperature for approximately 30 min, and a ^1H NMR spectrum was collected to determine the thermal relaxation value. This cycling process was repeated three more times.

[3] = Photoswitching in the absence or presence of sulfate (1H NMR, DMSO-d6); assay type: physicochemical
Protocol: Photoswitching in the presence of sulfate was performed in one of two methods. In the first method, 0.5 mol ratio (sulfate to 2PyDIG^+) tetramethylammonium sulfate was added to a freshly prepared 10 mM E,E-2PyDIG·HOTf in DMSO-d6 solution in a quartz cuvette. After the addition of sulfate, the solution was irradiated with a UV (Hg lamp) light for 2 hours while stirring. The solution was then heated statically for 36 hours, at which point the solution was left to cool at room temperature for approximately 30 minutes, and a ^1H NMR spectrum was collected. In the second method, a freshly prepared 10 mM E,E-2PyDIG·HOTf in DMSO-d6 solution was irradiated with UV (Hg lamp) light for 2 hours while stirring. Following this, tetramethylammonium sulfate was added in either 0.5 or 1.0 mol ratio (sulfate to 2PyDIG^+). The solution was then heated statically for 36 hours, at which point the solution was left to cool at room temperature for approximately 30 minutes, and a ^1H NMR spectrum was collected. ^1H NMR spectra were collected on 500 μL aliquots of the freshly prepared samples, samples after photoirradiation, and samples after thermal treatment at 50° C. for 36 hours.

[4] = Control, no SO4 added, mol ratio 0
[5] = SO4 added after irradiation, mol ratio 0.5
[6] = SO4 added after irradiation, mol ratio 1.0

SMILES: N=C(N/N=C/c1ccccn1)N/N=C/c1ccccn1.O=S(=O)(O)C(F)(F)F [E,E-2PyDIG, bis(2-((E)-pyridin-2-ylmethylene)hydrazineyl)methaniminium trifluoromethanesulfonate]
- log b11, E,E − Z,Z Difference ([1]; Eq. 2, difference of log binding constants of the isomers): 5.40±0.45
- log b21, E,E − Z,Z Difference ([1]; Eq. 3, difference of log binding constants of the isomers): 8.31 ± 0.56
- log b21, E,E Avg Value ([1]; Eq. 3, precision-weighted average of UV-vis and NMR titrations, DMSO-d6, 24° C.): 11.39±0.55
- log b12, E,E − Z,Z Difference ([1]; Eq. 4, difference of log binding constants of the isomers): 7.91 ± 0.76
- log b12 of the 1:2 adduct ([1]; as printed in text with unit, average value of Table 2): 11.91±0.74 M^−1
- log K12, addition of the second sulfate to the 1:1 adduct ([1]; stepwise constant, DMSO-d6): 4.7±1.5
- time required to reach thermal equilibrium ([2]; 1 mM solution, even at elevated temperatures): greater than 20 days
- photoconversion to the Z,Z isomer ([2]; 1.5 mM (low concentration), UV irradiation, DMSO-d6, 24° C.): 95.6±0.4%
- time to reach photoconversion to the Z,Z isomer ([2]; 1.5 mM, UV irradiation): less than 15 min
- Z,Z isomer initially present ([2]; 1.5 mM, before UV irradiation, DMSO-d6): 5.5±0.5%
- percent Z,Z isomer in cycling, after irradiation ([2]; 10 mM in DMSO, 6-hour irradiation): 69%
- percent Z,Z isomer in cycling, after dark equilibration ([2]; 10 mM in DMSO, 24-hour dark equilibration): 25%
- Z,Z isomer at PSS ([2]; 10 mM solution, UV irradiation): 67.7±4.4%
- time to reach PSS ([2]; 10 mM solution, UV irradiation): more than 2 hours
- time to reach thermal equilibrium ([2]; 24° C.): 4 days
- time to reach thermal equilibrium ([2]; 50° C.): less than 24 h
- experimental free energy difference between E,E and Z,Z forms (Eq. 1) ([2]; in the presence of triflate): 0.5 kcal/mol
- equilibrium constant of thermal relaxation back to E,E from Z,Z (Eq. 1) ([2]; independent of temperature): 2.38(8)
- E,E isomer at common thermal equilibrium ([2]; photoirradiated and nonirradiated solutions, thermal relaxation): 70.5±0.9%
- time to thermally equilibrate, unirradiated E,E isomer ([2]; unirradiated, 24° C.): 14 days
- Relative Amount of E,E-2PyDIG+, before irradiation [3, 4]: 97.4 ± 0.6%
- Relative Amount of E,E-2PyDIG+, thermal equilibrium [3, 4]: 70.5 ± 0.9%
- Relative Amount of E,E-2PyDIG+, after irradiation ([3]; Control, no SO4 added, mol ratio 0, PSS): 32.3 ± 4.4%
- Relative Amount of E,E-2PyDIG+, after irradiation [3, 5]: 33.2 ± 5.3%
- Relative Amount of E,E-2PyDIG+, before irradiation [3, 5]: 95.1 ± 1.4%
- Relative Amount of E,E-2PyDIG+, thermal equilibrium [3, 5]: 93.1 ± 3.3%
- Relative Amount of E,E-2PyDIG+, after irradiation [3, 6]: 31.0 ± 4.7%
- Relative Amount of E,E-2PyDIG+, before irradiation [3, 6]: 93.4 ± 2.9%
- Relative Amount of E,E-2PyDIG+, thermal equilibrium [3, 6]: 91.6 ± 1.9%
- Relative Amount of E,E-2PyDIG+, before irradiation ([3]; SO4 added before irradiation, mol ratio 0.5): 91.1 ± 1.2%
- Relative Amount of E,E-2PyDIG+, thermal equilibrium ([3]; SO4 added before irradiation, mol ratio 0.5, 50° C., 36 hours): 91.2 ± 1.4 ^ %
- Relative Amount of E,E-2PyDIG+, thermal equilibrium ([3]; SO4 added before irradiation, mol ratio 0.5, 50° C., 36 hours, listed as 2PyDIG·HOTf): 91.2±1.4%
- Relative Amount of E,E-2PyDIG+, after irradiation ([3]; SO4 added before irradiation, mol ratio 0.5, 2 hours UV): 32.5 ± 3.8 ^ %
- Relative Amount of E,E-2PyDIG+, after irradiation ([3]; SO4 added before irradiation, mol ratio 0.5, 2 hours UV, listed as 2PyDIG·HOTf): 32.5±3.8%
- Relative Amount of E,E-2PyDIG+, before irradiation ([3]; SO4 added before irradiation, mol ratio 0.5, listed as 2PyDIG·HOTf): 92.8±1.4%
- E,E isomer before sulfate addition, before irradiation ([3]; ca. 10 mM 2PyDIG·HOTf in DMSO-d6, before addition of 0.5 mol ratio sulfate): 93.1±1.2%

Reference: patent publication US12662403B2, “Photoswitchable guanidinium compounds for removal of oxyanions from liquid solutions” (UT-Battelle, LLC, priority 2021, dated 2026)
